Assay results from patent US10189809B2, “SGC stimulators” (Ironwood Pharmaceuticals, Inc., priority 2010, dated 2019).
Like-named read-outs stand apart in the source and are kept apart here.

Experiments:
[1] = biological target: T1, Human soluble guanylate cyclase enzyme (hsGC) (Homo sapiens (Human), UniProt Q02108+Q02153); assay: Purified human sGC enzyme activity assay; assay type: biochemical; details: for sGC Enzyme (fold increase at 30 μM) / sGC Enzyme (specific activity at 30 μM) / sGC Enzyme (fold increase at 30 μM without SNP): 30 μM compound
T1 sequence (Q02153 whole entry): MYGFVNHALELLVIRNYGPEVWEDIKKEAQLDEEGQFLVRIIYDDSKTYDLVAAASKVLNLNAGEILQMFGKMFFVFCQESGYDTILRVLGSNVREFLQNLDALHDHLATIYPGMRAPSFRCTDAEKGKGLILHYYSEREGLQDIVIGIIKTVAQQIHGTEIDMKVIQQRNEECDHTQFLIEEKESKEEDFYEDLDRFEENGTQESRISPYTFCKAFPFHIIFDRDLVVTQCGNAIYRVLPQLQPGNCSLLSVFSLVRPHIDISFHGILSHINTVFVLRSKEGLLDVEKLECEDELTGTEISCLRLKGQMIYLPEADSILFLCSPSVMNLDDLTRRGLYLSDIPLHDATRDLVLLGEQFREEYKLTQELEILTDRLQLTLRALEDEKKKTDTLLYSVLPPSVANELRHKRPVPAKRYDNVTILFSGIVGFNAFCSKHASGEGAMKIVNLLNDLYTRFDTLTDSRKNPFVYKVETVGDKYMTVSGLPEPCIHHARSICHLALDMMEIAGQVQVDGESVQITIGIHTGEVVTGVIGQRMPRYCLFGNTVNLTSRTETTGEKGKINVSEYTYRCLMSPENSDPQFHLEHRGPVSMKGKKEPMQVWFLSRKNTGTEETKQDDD
T1 sequence (Q02108 whole entry): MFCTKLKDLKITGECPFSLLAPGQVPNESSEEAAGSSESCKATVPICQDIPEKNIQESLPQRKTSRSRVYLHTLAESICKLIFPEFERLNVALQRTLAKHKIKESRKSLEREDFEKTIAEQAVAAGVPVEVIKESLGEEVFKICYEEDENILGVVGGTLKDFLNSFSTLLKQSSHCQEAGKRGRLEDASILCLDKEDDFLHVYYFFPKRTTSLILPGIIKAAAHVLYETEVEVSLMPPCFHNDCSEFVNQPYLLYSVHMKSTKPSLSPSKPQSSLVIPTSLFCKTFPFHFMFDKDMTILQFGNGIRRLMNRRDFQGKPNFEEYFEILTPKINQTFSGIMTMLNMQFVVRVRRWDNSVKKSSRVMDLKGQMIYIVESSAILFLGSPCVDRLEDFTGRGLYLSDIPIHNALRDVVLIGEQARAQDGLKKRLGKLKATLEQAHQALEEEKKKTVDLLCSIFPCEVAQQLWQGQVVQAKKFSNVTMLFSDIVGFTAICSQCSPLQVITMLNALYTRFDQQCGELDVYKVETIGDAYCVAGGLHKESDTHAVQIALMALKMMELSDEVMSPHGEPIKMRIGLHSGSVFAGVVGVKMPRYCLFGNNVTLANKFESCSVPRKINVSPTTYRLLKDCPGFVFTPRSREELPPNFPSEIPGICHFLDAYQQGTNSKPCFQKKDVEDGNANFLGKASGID
Procedure, shortened: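 Values are fold-change of sGC specific activity, nmoles cGMP per mg enzyme per min, relative to DMSO controls. Reactions: 5 ng human enzyme, 300 μM GTP, 1 mM IBMX, 2 mM MgCl2/DTT, 0.1 M Tris pH 8.0, compound 10 or 30 μM final, 37° C for 30 minutes, methanol quench. cGMP read against a 0.078-10 μM final standard curve.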

[2] = biological target: T1, Human soluble guanylate cyclase enzyme (hsGC); assay: Purified human sGC enzyme synergy assay in the presence of 1 μM sodium nitroprusside (SNP); assay type: biochemical; details: for sGC Enzyme (fold increase at 30 μM with SNP): 30 μM compound; for sGC Enzyme (fold increase at 10 μM with SNP): 10 μM compound
Description: Human soluble guanylate cyclase enzyme (hsGC) obtained from Enzo Inc. (P/N: ALX-201-177) was used to evaluate the activity of test compounds. The assay reactions contained 0.1 M Tris (pH 8.0), 0.5 mg/mL BSA (pH 8.0), 2 mM DTT, 2 mM MgCl2, 300 μM GTP, 1 mM 3-isobutyl-1-methylxanthine (IBMX) and 5 ng human soluble guanylate cyclase enzyme. Test compounds in DMSO were then added (2 μL, 10 or 30 μM final concentration) and incubated (200 μL, 96-well plate format) at 37° C. for 30 minutes. The controls were carried out using 2 μL DMSO. After the 30 minute incubation, the reaction was stopped with the addition of 200 μL of cold methanol. The plate was then centrifuged at 3,200 rpm for 10 minutes at room temperature. Supernatants (200 μL) were collected and transferred to a new 96 well plate for analysis.
An 8 point cGMP (Sigma-Aldrich P/N: G6129) standard curve was prepared in assay buffer ranging from 0.156-20 μM. Samples for the cGMP standard curve were then diluted with an equal volume of methanol resulting in final cGMP concentrations of 0.078-10 μM.
The cGMP standard curve was generated using GraphPad Prism Software.
Calculations: Specific Activity was determined by the amount of cGMP formed (nmoles) per mg of sGC per min. Enzyme “fold-change” was calculated by dividing Specific Activity for test compounds by Specific Activity of DMSO controls.
Enzyme assays were performed as described above, but was done in the presence of 1 μM sodium nitroprusside (SNP).

[3] = biological target: soluble guanylate cyclase (sGC) (Homo sapiens (Human), UniProt Q02108+Q02153); assay: sGC-HEK-cGMP assay run with SNP incubation (HEK WC assay); assay type: cell-based
Chain of soluble guanylate cyclase (sGC) (Q02153 whole entry): as the sequence (Q02153 whole entry) above
Chain of soluble guanylate cyclase (sGC) (Q02108 whole entry): as the sequence (Q02108 whole entry) above
Procedure, shortened: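 EC50 values derive from concentration-response curves of intracellular cGMP in HEK293 cells, which express sGC endogenously. Compound and sodium nitroprusside were co-incubated 10 min at 37 °C after a 15-min 0.5 mM IBMX step, with 0.1 M HCl lysis and 1% DMSO vehicle.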

[4] = read-out: HEK WC Assay (% Emax at 10 μM/with 10 uM SNP)
[5] = read-out: HEK WC Assay (% Emax at 30 μM/with 10 uM SNP)
[6] = read-out: HEK WC Assay (% Emax at 10 uM/with 10 uM SNP)
[7] = read-out: HEK WC Assay (% Emax at 30 uM/with 10 uM SNP)

Row | Compound | sGC Enzyme (fold increase at 30 μM) ([1]; without the addition of SNP) | sGC Enzyme (fold increase at 30 μM with SNP) ([2]; with the addition of SNP) | Emax at 10 µM [3, 4] [%] | Emax at 30 µM [3, 5] [%] | sGC Enzyme (specific activity at 10 μM) ([1]; 10 μM compound) | sGC Enzyme (fold increase at 10 μM without SNP) ([1]; 10 μM compound) | sGC Enzyme (specific activity at 30 μM) [1] | sGC Enzyme (fold increase at 30 μM without SNP) [1] | sGC Enzyme (fold increase at 10 μM with SNP) ([2]; with 1 μM SNP) | sGC Enzyme (fold increase at 30 μM with SNP) ([2]; with 1 μM SNP) | Emax at 10 µM [3, 6] [%] | Emax at 30 µM [3, 7] [%] | sGC Enzyme (fold increase at 10 μM) ([1]; 10 μM compound, without the addition of SNP) | sGC Enzyme (fold increase at 10 μM with SNP) ([2]; with the addition of SNP)
1 | Cc1cc(N)nc(-c2cc(-c3ccon3)n(Cc3ccccc3F)n2)n1 [Compound I-111] | B (B = 2 to <5 fold increase) | C (C = 5 to <10 fold increase) | 60 to 80 | 40 to 60 | – | – | – | – | – | – | – | – | – | –
2 | CS(=O)(=O)c1cnc(-c2cc(-c3ccon3)n(Cc3ccccc3F)n2)nc1N [Compound I-120] | A (A = no increase to <2 fold increase) | C (C = 5 to <10 fold increase) | 0 to 10 | 0 to 10 | – | – | – | – | – | – | – | – | – | –
3 | Nc1nc(-c2cc(-c3ccon3)n(Cc3ccccc3F)n2)ncc1-c1cccnc1 [Compound I-127] | C (C = 5 to <10 fold increase) | D (D = 10 to <30 fold increase) | 60 to 80 | 60 to 80 | – | – | – | – | – | – | – | – | – | –
4 | Nc1nc(-c2cc(-c3ccon3)n(Cc3ccccc3F)n2)ncc1-c1nccs1 [Compound I-108] | A (A = no increase to <2 fold increase) | B (B = 2 to <5 fold increase) | 20 to 40 | 20 to 40 | – | – | – | – | – | – | – | – | – | –
5 | Cn1c(=O)[nH]c2nc(-c3cc(-c4ncco4)n(Cc4ccccc4F)n3)nc(N)c21 [Compound I-101, 6-amino-2-(1-(2-fluorobenzyl)-5-(oxazol-2-yl)-1H-pyrazol-3-yl)-7-methyl-7H-purin-8(9H)-one] | B (B = 2 to <5 fold increase) | D (D = 10 to <30 fold increase) | 60 to 80 | 20 to 40 | – | – | – | – | – | – | – | – | – | –
6 | Nc1nc(-c2cc(-c3ccon3)n(Cc3ccccc3F)n2)ncc1C(=O)O [Compound I-132] | B (B = 2 to <5 fold increase) | C (C = 5 to <10 fold increase) | 40 to 60 | 20 to 40 | – | – | – | – | – | – | – | – | – | –
7 | CCOC(=O)c1cnc(-c2cc(-c3ccon3)n(Cc3ccccc3F)n2)nc1N [Compound I-131] | B (B = 2 to <5 fold increase) | D (D = 10 to <30 fold increase) | 60 to 80 | 40 to 60 | – | – | – | – | – | – | – | – | – | –
8 | COC(=O)Nc1c(N)nc(-c2cc(-c3ccccn3)n(Cc3ccccc3F)n2)nc1N [Compound I-89] | A (A = no increase to <2 fold increase) | A (A = no increase to <2 fold increase) | 0 to 10 | 0 to 10 | – | – | – | – | – | – | – | – | – | –

Continued, values first:

Row | sGC Enzyme (fold increase at 30 μM) ([1]; without the addition of SNP) | sGC Enzyme (fold increase at 30 μM with SNP) ([2]; with the addition of SNP) | Emax at 10 µM [3, 4] [%] | Emax at 30 µM [3, 5] [%] | sGC Enzyme (specific activity at 10 μM) ([1]; 10 μM compound) | sGC Enzyme (fold increase at 10 μM without SNP) ([1]; 10 μM compound) | sGC Enzyme (specific activity at 30 μM) [1] | sGC Enzyme (fold increase at 30 μM without SNP) [1] | sGC Enzyme (fold increase at 10 μM with SNP) ([2]; with 1 μM SNP) | sGC Enzyme (fold increase at 30 μM with SNP) ([2]; with 1 μM SNP) | Emax at 10 µM [3, 6] [%] | Emax at 30 µM [3, 7] [%] | sGC Enzyme (fold increase at 10 μM) ([1]; 10 μM compound, without the addition of SNP) | sGC Enzyme (fold increase at 10 μM with SNP) ([2]; with the addition of SNP) | Compound
9 | – | – | – | – | D (D = 200 to <500) | B (B = 2 to <5 fold increase) | D (D = 200 to <500) | B (B = 2 to <5 fold increase) | B (B = 2 to <5 fold increase) | C (C = 5 to <10 fold increase) | 10 to 20 | 10 to 20 | – | – | Fc1ccccc1Cn1nc(-c2ccccn2)cc1-c1cccs1 [Compound I-35]
10 | – | – | – | – | – | A (A = no increase to <2 fold increase) | – | A (A = no increase to <2 fold increase) | A (A = no increase to <2 fold increase) | A (A = no increase to <2 fold increase) | 0 to 10 | 0 to 10 | – | – | Fc1ccccc1Cn1nc(-c2ccc(Br)cn2)cc1-c1ccccn1 [Compound I-52, 5-bromo-2-(1-(2-fluorobenzyl)-5-(pyridin-2-yl)-1H-pyrazol-3-yl)pyridine]
11 | A (A = no increase to <2 fold increase) | A (A = no increase to <2 fold increase) | 0 to 10 | 0 to 10 | – | – | – | – | – | – | – | – | A (A = no increase to <2 fold increase) | A (A = no increase to <2 fold increase) | Oc1cccc(-c2cc(-c3ccccn3)nn2Cc2ccccc2F)n1 [Compound I-79, 6-(1-(2-fluorobenzyl)-3-(pyridin-2-yl)-1H-pyrazol-5-yl)pyridin-2-ol]
12 | – | – | – | – | B (B = 50 to <100) | A (A = no increase to <2 fold increase) | B (B = 50 to <100) | B (B = 2 to <5 fold increase) | B (B = 2 to <5 fold increase) | B (B = 2 to <5 fold increase) | 0 to 10 | 0 to 10 | – | – | Cc1ccc(-c2c(Br)c(-c3ncccn3)nn2Cc2ccccc2F)cc1 [Compound I-58]
13 | – | – | – | – | B (B = 50 to <100) | A (A = no increase to <2 fold increase) | B (B = 50 to <100) | A (A = no increase to <2 fold increase) | A (A = no increase to <2 fold increase) | A (A = no increase to <2 fold increase) | 0 to 10 | 0 to 10 | – | – | Cc1ccc(-c2cc(-c3ccccn3)nn2Cc2ccccc2F)nc1 [Compound I-56]
14 | – | – | – | – | B (B = 50 to <100) | A (A = no increase to <2 fold increase) | B (B = 50 to <100) | A (A = no increase to <2 fold increase) | A (A = no increase to <2 fold increase) | B (B = 2 to <5 fold increase) | 0 to 10 | 0 to 10 | – | – | Cc1ccc(-c2cc(-c3ccccn3)n(Cc3ccccc3F)n2)nc1 [Compound I-57]
15 | – | – | – | – | – | A (A = no increase to <2 fold increase) | – | A (A = no increase to <2 fold increase) | A (A = no increase to <2 fold increase) | A (A = no increase to <2 fold increase) | 0 to 10 | 0 to 10 | – | – | Cc1ccc(-c2c(C#N)c(-c3ncccn3)nn2Cc2ccccc2F)cc1 [Compound I-69, 1-(2-fluorobenzyl)-3-(pyrimidin-2-yl)-5-p-tolyl-1H-pyrazole-4-carbonitrile]
16 | A (A = no increase to <2 fold increase) | A (A = no increase to <2 fold increase) | 0 to 10 | 0 to 10 | – | – | – | – | – | – | – | – | – | – | Cc1cccc(-c2cc(-c3ncccn3)nn2Cc2ccccc2F)n1 [Compound I-70, 2-(1-(2-fluorobenzyl)-5-(6-methylpyridin-2-yl)-1H-pyrazol-3-yl)pyrimidine]
17 | – | – | – | – | – | A (A = no increase to <2 fold increase) | – | A (A = no increase to <2 fold increase) | A (A = no increase to <2 fold increase) | A (A = no increase to <2 fold increase) | 0 to 10 | 0 to 10 | – | – | N#Cc1c(-c2ccccn2)nn(Cc2ccccc2F)c1-c1ccccn1 [Compound I-54, 1-(2-fluorobenzyl)-3,5-di(pyridin-2-yl)-1H-pyrazole-4-carbonitrile]
